Experiments:
CD34^+ cells = assay: Expansion of CD34+ cells using human cord blood-derived CD34+ cells (Assay Example 1); type: cell-based; conditions: 100 ng/mL SCF, 7 days, based on the number of CD34^+ cells in the absence of compound
Protocol: (§1) Human cord blood-derived CD34^+ cells were purchased from Lonza and plated on a 24-well plate (Corning) (10000 cells/1 mL/well). As the culture medium, StemSpan SFEM (StemCell Technologies) containing 100 ng/mL SCF (Wako Pure Chemical Industries) was used, and one of Compounds No. 1 to 72 dissolved in dimethyl sulfoxide was added in an amount of 0.1% (v/v) to a final concentration of 1 or 3 μg/mL. As a positive control, TPO (PeproTech) was used at a final concentration of 10 ng/mL.
(§2) After the cells were incubated in liquid culture at 37° C. for 7 days in a CO2 incubator (5% CO2), the number of viable cells was counted by trypan blue assay. The number of CD34^+CD38^− cells was calculated as follows. After the incubation, the cells in the liquid culture was stained with a CD34 antibody (APC, Becton, Dickinson and Company) and a CD38 antibody (PE, Becton, Dickinson and Company), then washed with PBS(−) containing 2% (v/v) FBS and stained with propidium iodide (Sigma-Aldrich Japan) added to a final concentration of 5 μg/mL. The stained cells were analyzed with a BD FACSCANTO™ II flow cytometer (Becton, Dickinson and Company) to determined the proportions of CD34^+ cells and CD34^+CD38^− cells, which was multiplied by the number of viable cells to calculate the numbers of CD34^+ cells and CD34^+CD38^− cells.
(§3) The expansion efficiencies in the presence of 1 or 3 μg/mL of compounds based on the number of CD34^+ cells in the absence of them are shown in Tables 3-1 and 3-2 on a scale of A for expansion efficiencies of 6 or greater, B for expansion efficiencies of at least 4 and less than 6, and C for expansion efficiencies of at least 2 and less than 4. The expansion efficiencies in the presence of 1 or 3 μg/mL of compounds based on the number of CD34^+CD38^− cells in the absence of them are shown in Tables 4-1 and 4-2 on a scale of A for expansion efficiencies of 10 or greater, B for expansion efficiencies of at least 5 and less than 10, and C for expansion efficiencies of at least 3 and less than 5. Further, in Table 3, the compounds with an expansion efficiency twice or more greater than that of TPO are marked with O.

CD34^+CD38^− cells = assay: Expansion of CD34+CD38- cells using human cord blood-derived CD34+ cells (Assay Example 1); type: cell-based; conditions: for Expansion efficiency (CD34^+CD38^− cells): 100 ng/mL SCF, 7 days, based on the number of CD34^+CD38^− cells in the absence of compound; for Comparison with TPO: CD34^+CD38^− cells
Protocol: as §1, §2, §3

[1] = 3 μg/mL compound vs TPO 10 ng/mL
[2] = 1 μg/mL compound vs TPO 10 ng/mL

| SMILES | Expansion efficiency (CD34^+ cells) (CD34^+ cells; 3 μg/mL compound) | Expansion efficiency (CD34^+CD38^− cells) (CD34^+CD38^− cells; 3 μg/mL compound) | Comparison with TPO (CD34^+CD38^− cells; [1]) | Expansion efficiency (CD34^+ cells) (CD34^+ cells; 1 μg/mL compound) | Expansion efficiency (CD34^+CD38^− cells) (CD34^+CD38^− cells; 1 μg/mL compound) | Comparison with TPO (CD34^+CD38^− cells; [2]) |
| --- | --- | --- | --- | --- | --- | --- |
| COCCOCCNC(=O)c1ccc(CNC(=O)c2ccc(C(=O)NN=C(C)c3csc(-c4ccc(Cl)c(Cl)c4)c3O)s2)cc1 [compound 31] | C (C for expansion efficiencies of at least 2 and less than 4) | A (A for expansion efficiencies of 10 or greater) |  |  |  |  |
| COCCOCCNC(=O)c1ccc(CNC(=O)c2ccc(C(=O)NN=C(C)c3csc(-c4ccc(C(C)(C)C)cc4)c3O)s2)cc1 [compound 32] | A (A for expansion efficiencies of 6 or greater) | A (A for expansion efficiencies of 10 or greater) | ∘ |  |  |  |
| COCCOCCNC(=O)c1ccc(CNC(=O)c2ccc(C(=O)NN=C(C)c3csc(-c4ccc(Br)cc4)c3O)s2)cc1 [compound 33] | A (A for expansion efficiencies of 6 or greater) | A (A for expansion efficiencies of 10 or greater) | ∘ |  |  |  |
| CCCCOCCOCCNC(=O)c1ccc(CNC(=O)c2ccc(C(=O)NN=C(C)c3csc(-c4ccc(Cl)c(Cl)c4)c3O)s2)cc1 [compound 34] | C (C for expansion efficiencies of at least 2 and less than 4) | B (B for expansion efficiencies of at least 5 and less than 10) |  |  |  |  |
| CCCCOCCOCCNC(=O)c1ccc(CNC(=O)c2ccc(C(=O)NN=C(C)c3csc(-c4ccc(C(C)(C)C)cc4)c3O)s2)cc1 [compound 35] | C (C for expansion efficiencies of at least 2 and less than 4) | B (B for expansion efficiencies of at least 5 and less than 10) |  |  |  |  |
| CCCCOCCOCCNC(=O)c1ccc(CNC(=O)c2ccc(C(=O)NN=C(C)c3csc(-c4ccc(Br)cc4)c3O)s2)cc1 [compound 36] | C (C for expansion efficiencies of at least 2 and less than 4) | B (B for expansion efficiencies of at least 5 and less than 10) |  |  |  |  |
| CCCCCCOCCOCCNC(=O)c1ccc(CNC(=O)c2ccc(C(=O)NN=C(C)c3csc(-c4ccc(Cl)c(Cl)c4)c3O)s2)cc1 [compound 37] | C (C for expansion efficiencies of at least 2 and less than 4) | A (A for expansion efficiencies of 10 or greater) |  |  |  |  |
| CCCCCCOCCOCCNC(=O)c1ccc(CNC(=O)c2ccc(C(=O)NN=C(C)c3csc(-c4ccc(C(C)(C)C)cc4)c3O)s2)cc1 [compound 38] | C (C for expansion efficiencies of at least 2 and less than 4) | A (A for expansion efficiencies of 10 or greater) |  |  |  |  |
| CC(=NNC(=O)c1ccc(C(=O)NCc2ccc(C(=O)NCCOCCO)cc2)cc1)c1csc(-c2ccc(C(C)(C)C)cc2)c1O [compound 44] | C (C for expansion efficiencies of at least 2 and less than 4) | A (A for expansion efficiencies of 10 or greater) |  |  |  |  |
| CC(=O)NCc1ccc(CNC(=O)c2ccc(C(=O)NN=C(C)c3csc(-c4ccc(Cl)c(Cl)c4)c3O)s2)cc1 [compound 52] |  |  |  | A (A for expansion efficiencies of 6 or greater) | A (A for expansion efficiencies of 10 or greater) |  |
| CC(=O)NCc1ccc(CNC(=O)c2ccc(C(=O)NN=C(C)c3csc(-c4ccc(C(C)(C)C)cc4)c3O)s2)cc1 [compound 53] |  |  |  | C (C for expansion efficiencies of at least 2 and less than 4) | B (B for expansion efficiencies of at least 5 and less than 10) |  |
| CC(=O)NCc1ccc(CNC(=O)c2ccc(C(=O)NN=C(C)c3csc(-c4ccc(Br)cc4)c3O)s2)cc1 [compound 54] |  |  |  | A (A for expansion efficiencies of 6 or greater) | A (A for expansion efficiencies of 10 or greater) |  |
| CC(=O)NCc1ccc(CNC(=O)c2ccc(C(=O)NN=C(C)c3csc(-c4ccc(C(F)(F)F)cc4)c3O)s2)cc1 [compound 55] |  |  |  | A (A for expansion efficiencies of 6 or greater) | A (A for expansion efficiencies of 10 or greater) |  |
| CC(=O)NCc1ccc(CNC(=O)c2ccc(C(=O)NN=C(C)c3csc(-c4ccc(Cl)cc4)c3O)s2)cc1 [compound 56] |  |  |  | A (A for expansion efficiencies of 6 or greater) | A (A for expansion efficiencies of 10 or greater) |  |
| CC(=O)NCc1ccc(CNC(=O)c2ccc(C(=O)NN=C(C)c3csc(-c4ccc(OC(F)(F)F)cc4)c3O)s2)cc1 [compound 57] | B (B for expansion efficiencies of at least 4 and less than 6) | A (A for expansion efficiencies of 10 or greater) |  |  |  |  |
| COc1ccc(-c2scc(C(C)=NNC(=O)c3ccc(C(=O)NCc4ccc(CNC(C)=O)cc4)s3)c2O)cc1 [compound 58] |  |  |  | B (B for expansion efficiencies of at least 4 and less than 6) | A (A for expansion efficiencies of 10 or greater) |  |
| CC(=NNC(=O)c1ccc(C(=O)NCc2ccc(C(=O)NCCOCCO)cc2)s1)c1csc(-c2ccc(Cl)c(Cl)c2)c1O [compound 59] | B (B for expansion efficiencies of at least 4 and less than 6) | A (A for expansion efficiencies of 10 or greater) | ∘ |  |  |  |
| CC(=NNC(=O)c1ccc(C(=O)NCc2ccc(C(=O)NCCOCCO)cc2)s1)c1csc(-c2ccc(C(F)(F)F)cc2)c1O [compound 62] | A (A for expansion efficiencies of 6 or greater) | A (A for expansion efficiencies of 10 or greater) | ∘ |  |  |  |
| CC(=NNC(=O)c1ccc(C(=O)NCc2ccc(C(=O)NCCOCCO)cc2)s1)c1csc(-c2ccc(Cl)cc2)c1O [compound 63] | A (A for expansion efficiencies of 6 or greater) | A (A for expansion efficiencies of 10 or greater) | ∘ |  |  |  |
| CC(=NNC(=O)c1ccc(C(=O)NCc2ccc(C(=O)NCCOCCO)cc2)s1)c1csc(-c2ccc(OC(F)(F)F)cc2)c1O [compound 64] |  |  |  | A (A for expansion efficiencies of 6 or greater) | A (A for expansion efficiencies of 10 or greater) | ∘ |
| COc1ccc(-c2scc(C(C)=NNC(=O)c3ccc(C(=O)NCc4ccc(C(=O)NCCOCCO)cc4)s3)c2O)cc1 [compound 65] | C (C for expansion efficiencies of at least 2 and less than 4) | B (B for expansion efficiencies of at least 5 and less than 10) |  |  |  |  |
| CC(=NNC(=O)c1ccc(C(=O)NCc2ccc(CC(N)=O)cc2)s1)c1csc(-c2ccc(Cl)c(Cl)c2)c1O [compound 66] | C (C for expansion efficiencies of at least 2 and less than 4) | A (A for expansion efficiencies of 10 or greater) |  |  |  |  |
| CC(=NNC(=O)c1ccc(C(=O)NCc2ccc(CC(N)=O)cc2)s1)c1csc(-c2ccc(C(C)(C)C)cc2)c1O [compound 67] |  |  |  | B (B for expansion efficiencies of at least 4 and less than 6) | A (A for expansion efficiencies of 10 or greater) | ∘ |
| CC(=NNC(=O)c1ccc(C(=O)NCc2ccc(CC(N)=O)cc2)s1)c1csc(-c2ccc(Br)cc2)c1O [compound 68] | A (A for expansion efficiencies of 6 or greater) | A (A for expansion efficiencies of 10 or greater) | ∘ |  |  |  |
| CC(=NNC(=O)c1ccc(C(=O)NCc2ccc(CC(N)=O)cc2)s1)c1csc(-c2ccc(C(F)(F)F)cc2)c1O [compound 69] | A (A for expansion efficiencies of 6 or greater) | A (A for expansion efficiencies of 10 or greater) |  |  |  |  |
| CC(=NNC(=O)c1ccc(C(=O)NCc2ccc(CC(N)=O)cc2)s1)c1csc(-c2ccc(Cl)cc2)c1O [compound 70] | A (A for expansion efficiencies of 6 or greater) | A (A for expansion efficiencies of 10 or greater) | ∘ |  |  |  |

— patent US9328085B2, “Heterocyclic compounds and expansion agents for hematopoietic stem cells” (NISSAN CHEMICAL INDUSTRIES, LTD., priority 2009, dated 2016)
